O=C(O)CNC(=O)c1ccccc1
solubility (mole fraction)
Settings	in 1,4-dioxane	in DMF	in THF	in chloroform	in ethanol	in methanol	in n-butanol	in n-propanol
298.15 K	0.00729	0.206	0.0142	0.00021	0.0148	0.0179	0.00776	0.00884
303.15 K	0.0084	0.213	0.0167	0.00035	0.0162	0.0197	0.00908	0.0108
308.15 K	0.0109	0.219	0.018	0.00052	0.0194	0.023	0.0106	0.0121
313.15 K	0.014	0.226	0.0209	0.0007	0.024	0.0275	0.0128	0.0151
318.15 K	0.0164	0.232	0.0228	0.00088	0.029	0.0323	0.0151	0.0174
323.15 K	0.0182	0.239	0.026	0.00102	0.0342	0.0378	0.0178	0.0201
328.15 K	0.0209	0.246	0.0291	0.0011	0.0396	0.0448	0.0205	0.0232

From BigSolDB 2.1
